The test system of assay [1] is people with ALS. The settings on record: injected intravenously; small subset of people with ALS; phase 3; cited from earlier work.
The test system of assay [2] is SOD1^G93A Tg rat spinal cord motor neurons. Nature of the assay: Primary culture of SOD1^G93A Tg rat spinal cord motor neurons injured with glutamate, 48 h incubation. In kind it is cell-based. The settings on record: glutamate 5 μM 20 min; for Protective effects of reference drugs after glutamate injury: concentration not given. As to the method: Female (Sprague Dawley, Janvier) were mated at Neuro-Sys (Gardanne, France) with Tg SOD1^G93A male rats (Taconic Bioscience, US). Pregnant females of 14 days of gestation were used for the culture. The day of the dissection, a piece of each embryo head (˜3 mm^3) was placed in a 2 mL DNase free tube with a new scalpel. The DNA was extracted with the SYBR Green Extract-N-Amp tissue PCR kit (Sigma Aldrich). Briefly, 120 μL of extraction solution was put on each piece of embryo heads. Then, they were incubated for 10 min at room temperature. At the end of this incubation period, the heads were incubated for 5 min at 95° C. Immediately after this last incubation, 100 μL of neutralizing solution was added; each DNA extract was diluted at 1/40 and stored at +4° C. until use. SOD1^G93A gene was determined using genomic fragment with human SOD1 primers (5′-[…]-3′ SEQ ID NO: 1; 5′-[…]-3′ SEQ ID NO:2). The SOD1 primers were diluted at 3 μM in sterile ultrapure water. Briefly, a mix for PCR was prepared with ultrapure water (4 μL per sample), primer at 3 μM (2 μL per sample) and Master Mix (10 μL per sample). In a PCR 96 wells plate, 16 μL of PCR mix was added in each well. 4 μL of each diluted DNA was added according to a plan deposit.
Rat spinal cord motor neurons were cultured as described by Boussicault et al., J Neurosci Res. 2020 December; 98 (12), 2435-50 and Wang et al. Hum. Mol. Genet., 2013 December 1; 22 (23), 4706-19. Pregnant female rats of 14 days of gestation were killed by cervical dislocation. The culture was carried out as described in example 1.
On day 13, culture medium was removed and cultures were exposed to the test compounds: N-(3-(4-(3-(diisobutylamino)propyl)piperazin-1-yl)propyl)-1H-benzo[d]imidazol-2-amine) sesqui-succinate salt Form 1, in comparison to Riluzole and Edaravone, and glutamate (5 μM) for 20 min at 37° C. in defined medium. After glutamate exposure, the cultures were washed with defined medium at 37° C. then placed in fresh culture medium containing the test compound, Riluzole or Edavarone for additional 48h.
• The end point evaluation was carried out as described in example 1.
(§1) The statistical analysis was carried out as described in example 1.

Assay [3] concerns neuromuscular junctions in co-culture of human myoblasts and rat spinal cord explants. In words: Co-culture of human myoblasts and rat spinal cord explants (neuromuscular junctions) injured with glutamate. It is filed as cell-based. The settings on record: glutamate 60 μM 20 min, 48 h incubation.
The subject of assay [4] is Rat spinal cord motor neurons (MN). Nature of the assay: Rat primary spinal cord motor neurons injured with glutamate, 24 h pre-incubation + 24 h post-injury incubation. In kind it is cell-based. As to the method:
The culture was carried out as described in example 1.
On day 12 of culture, primary motor neurons were treated with the sesqui-succinate Form 1 for 24 hours. On day 13 of culture, glutamate was added to a final concentration of 5 µM diluted in control medium in presence of the sesqui-succinate salt Form 1 for 20 min. After 20 min, glutamate was washed and fresh culture medium with the sesqui-succinate Form 1 was added for an additional 24 hours.
The end point evaluation was carried out as described in example 1.
as §1

For assay [5] the test system is unchanged. Nature of the assay: Rat primary spinal cord motor neurons injured with glutamate, 48 h incubation with compound. In kind it is cell-based. The settings on record: glutamate 5 μM 20 min. As to the method: Rat spinal cord motor neurons (MN) were cultured as previously described by Boussicault et al., J Neurosci Res. 2020 December; 98 (12), 2435-50 and Wang et al. Hum. Mol. Genet., 2013-12-1; 22 (23), 4706-19. Pregnant female rats of 14 days gestation (Rats Wistar; Janvier Labs France) were killed using a deep anesthesia with CO2 chamber followed by cervical dislocation. Then, embryos (E14) were removed from the uterus and immediately placed in ice-cold L15 Leibovitz medium with a 2% penicillin (10,000 U/mL) and streptomycin (10 mg/mL) solution (PS) and 1% bovine serum albumin (BSA). Spinal cords were removed and placed in ice-cold medium of Leibovitz (L15). Spinal cords were treated for 20 min at 37° C. with a trypsin-Ethylenediaminetetraacetic acid (EDTA) solution at a final concentration of 0.05% trypsin and 0.02% EDTA. The dissociation was stopped by the addition of Dulbecco's modified Eagle's medium (DMEM) with 4.5 g/liter of glucose, containing DNAse I grade II (final concentration 0.5 mg/mL) and 10% fetal calf serum (FCS). Cells were mechanically dissociated by three forced passages through the tip of a 10-mL pipette. Cells were then centrifuged at 515×g for 10 min at +4° C. The supernatant was discarded, and the pellet was resuspended in a defined culture medium consisting of Neurobasal medium with a 2% solution of B27 supplement, 2 mmol/liter of L-glutamine, 2% of PS solution, and 10 ng/ml of brain-derived neurotrophic factor (BDNF). Viable cells were counted in a Neubauer cytometer, using the trypan blue exclusion test. The cells were seeded at a density of 20,000 per well in 96-well plates precoated with poly-L-lysine and cultured at 37° C. in an air (95%)-CO2 (5%) incubator. The medium was changed every 2 days.
On day 13 of culture, glutamate was added to a final concentration of 5 μM diluted in control medium in presence of the sesqui-succinate Form 1 for 20 min. After 20 min, glutamate was washed and fresh culture medium with the sesqui-succinate Form 1 was added for 48 hours.
After 15 days of culture (48h after the glutamate injury), the cell culture supernatant was collected and the spinal cord MNs were fixed by a cold solution of ethanol (95%) and acetic acid (5%) for 5 min at −20° C. for immunostaining. Cells were washed twice in PBS. Cell membranes were permeabilized and non-specific sites were blocked with a solution of PBS containing 0.1% of saponin and 1% FCS for 15 min at room temperature. Then, cells were incubated for 2 hours with: • a) mouse monoclonal antibody anti-microtubule associated protein 2 (MAP-2) at dilution of 1/400 in PBS containing 1% fetal calf serum and 0.1% of saponin. This antibody binds specifically MAP-2 present in cell bodies and neurites of all MNs. […] Cytoplasmic localization of TDP43 was investigated.
Nuclei of neurons were counterstained with the fluorescent dye (Hoechst).
For each condition, 30 pictures (representative of the whole well area) per well were automatically taken using ImageXpress (Molecular Devices) with 20× magnification. All images were taken under the same conditions (exposition time, gain and laser intensity). Analysis of different endpoints, were automatically performed using Custom Module Editor (Molecular Devices). Motoneurons (MAP-2) were distinguished from interneurons (staining MAP-2) using the following morphological criteria: a cell body diameter […] and the presence of a minimum of three neuritic processes (Ferraiuolo et al. Brain 2011:134; 2627-2641).
The endpoints were: • survival of MNs (MAP-2 staining number of MNs) • neurite network of MNs (MAP-2 staining, total neurite length expressed in μm) • cytoplasmic TDP43 (extranuclear, eTDP43) in MAP-2 positive MNs (overlapping between MAP-2 and cytoplasmic TDP-43 in μm^2). Results are expressed as the ratio of the overlapping MAP-2/TDP-43 per number of MNs.
All values are expressed as mean+/−SEM. Statistical analyses were performed using one-way ANOVA followed by PLSD Fisher test. […]

Where [6] appears, read: 30 nM to 300 nM, 24 h pre-incubation + 24 h incubation.
[7] abbreviates: 30 nM to 300 nM, 48 h incubation.

With `CC1=NN(c2ccccc2)C(=O)C1` [Edaravone, reference compound], in assay [1], the “Decline of ALS Functional Rating Scale-Revised score compared with placebo” value is on record as “significantly smaller decline”. Also, the “Protective effects of reference drugs after glutamate injury” value in assay [2] (FIG. 9) is reported as “protective effects”.

On to `Nc1nc2ccc(OC(F)(F)F)cc2s1` [Riluzole, reference compound], for which the “Protective effects of reference drugs after glutamate injury” value in assay [2] (FIG. 9) is “protective effects”. Moreover, in assay [3] (concentration not given, FIG. 10), the “Protective effects of reference drug after glutamate injury” value is listed as “protective effects”.

For the molecule “N-(3-(4-(3-(diisobutylamino)propyl)piperazin-1-yl)propyl)-1H-benzo[d]imidazol-2-amine sesqui-succinate salt [sesqui-succinate salt Form 1]”, in assay [2] (3 nM to 100 nM), the “Protective effect on neuronal survival, dose relation” value was “dose-dependent” and the “Protective effect on the distribution of TDP-43, dose relation” value is on record as “dose-dependent”. In addition, the “Neuroprotection (number of MNs, neurite network, TDP-43 distribution) after glutamate injury” value in assay [2] (3 nM to 100 nM, FIG. 9) is “neuroprotective”. Also, the “Protective effects in comparison to Riluzole and Edaravone” value in assay [2] (100 nM) is reported as “comparable to those of Riluzole or Edaravone”. Moreover, in assay [4] (setting [6]), the “Effect on motor neuron survival compared to the glutamate condition” value is “positive and significant effect”; the “Effect on neurite network after glutamate damage” value is “able to protect the neurite network”. In assay [4] (30 nM to 300 nM, 24 h pre-incubation + 24 h incubation, glutamate alone mean 139% of control, FIG. 8C), the “Reduction of abnormal distribution of TDP-43 (extranuclear TDP-43)” value is “up to 14%”. Further, the “Neurite network integrity, mean, percentage of control” value in assay [4] (300 nM (maximal effect), 24 h pre-incubation + 24 h incubation, glutamate alone mean 60%, FIG. 8B) was 81%. Besides, in assay [4] (300 nM (maximal effect), 24 h pre-incubation, glutamate 5 µM 20 min, 24 h post-injury incubation, glutamate alone mean 62%, FIG. 8A), the “Motor neuron survival, mean, percentage of control” value was found to be 79%. Also, the “Neuroprotective effects on neuromuscular junctions and neurite network” value in assay [3] (300 nM) is “neuroprotective effects on a dose-dependent manner”. For the same molecule, the “Number of NMJs” value in assay [3] (300 nM, versus glutamate, FIG. 10A) was “increased”. For the same molecule, the “Total area of NMJs” value in assay [3] (300 nM, versus glutamate, FIG. 10B) is listed as “increased”. Further, in assay [3] (300 nM, versus glutamate, FIG. 10C), the “Total MNs neurite network (NFH)” value was “increased”. Moreover, the “Protective effects in comparison to Riluzole” value in assay [3] was “comparable to those of Riluzole”. The “Motor neuron survival (number of MAP-2 positive MNs), mean, percentage of control” value in assay [5] (30 nM (maximal effect), then 48 h with compound, glutamate alone mean 58%, FIG. 7A) was 79%. Also, in assay [5] (setting [7]), the “Effect on motor neuron survival compared to the glutamate condition” value was “positive and significant effect”; the “Effect on neurite network after glutamate injury” value is given as “able to improve the neurite network”. In addition, in assay [5] (100 nM (maximal effect), 48 h incubation, glutamate alone mean 62%, FIG. 7B), the “Neurite network integrity (MAP-2 total neurite length), mean, percentage of control” value stood at 77%. The “Reduction of accumulation of TDP-43 in the cytoplasm (extranuclear TDP-43)” value in assay [5] (300 nM, 48 h incubation, glutamate alone mean 135% of control, FIG. 7C) is “up to 17%”. Also, the “Effect on accumulation of TDP-43 in the cytoplasm (extranuclear TDP-43)” value in assay [5] (30 to 300 nM, 48 h incubation) is “significantly reduce”.

Source of the values: patent publication US20250041290A1, “USE OF N-(3-(4-(3-(DIISOBUTYLAMINO)PROPYL)PIPERAZIN-1-YL)PROPYL)-1H-BENZO[d]IMIDAZOL-2-AMINE SUCCINATE SALTS AND SOLVATES THEREOF FOR THE TREATMENT OF MOTOR NEURON DISEASES AND NEUROMUSCULAR JUNCTION DISORDERS” (ALZPROTECT, priority 2021, published 2025).
